Patent US8853228B2, “Heterocyclic analogs of propargyl-linked inhibitors of dihydrofolate reductase” (University of Connecticut, priority 2011, dated 2014)
Converted amounts (≈) assume the structure as drawn. Where two headings read alike, the source gives them in different places.

Assays:
C. glabrata = assay: Antifungal assay (MIC, Alamar Blue); assay type: cell-based, Candida glabrata; conditions: for MIC: Nakaseomyces glabratus; for antifungal properties against C. glabrata: result in words
Method: Antifungal assays were performed using C. glabrata as a suspension in 50% glycerol at −78° C. For susceptibility testing, a streak of stock culture was made on SDA agar and grown at 30° C. for 48 h. One pure colony of the test organism was recovered from the plate, suspended in appropriate media and grown in a 5 mL shake flask culture. A sample of the shake flask culture was diluted to 1×10^5 cells/mL in media and added to 96-well test plates (100 μL per well) containing test compounds dispensed in DMSO (1 μL). Amphotericin and ketoconazole were used as controls. After an incubation period determined from the strain specific doubling time, Alamar Blue (10 μL) was added, allowed to incubate; each well was scored for dye reduction.
Several representative compounds were also evaluated in thymidine-depleted media. It has been shown that high levels of thymidine interfere with accurate susceptibility testing of antifolates. To compensate for this, antifolates are frequently evaluated in a controlled minimal media with a low thymidine concentration. […] In addition, the compounds were also evaluated for mammalian cell toxicity using MCF-10 and HepG2 cell lines. Cellular selectivity is reported as the IC50 value for the MCF-10 human cell line divided by the MIC value (μg/mL) (Table 8).

Measured solubility = assay type: physicochemical; conditions: in 200 mcg/mL HPMC and 0.2% DMSO
ChDHFR-TS = ChDHFR-TS (Cryptosporidium hominis, UniProt Q27552); assay: ChDHFR enzyme inhibition assay; assay type: biochemical
Sequence of ChDHFR-TS (Q27552 1-521): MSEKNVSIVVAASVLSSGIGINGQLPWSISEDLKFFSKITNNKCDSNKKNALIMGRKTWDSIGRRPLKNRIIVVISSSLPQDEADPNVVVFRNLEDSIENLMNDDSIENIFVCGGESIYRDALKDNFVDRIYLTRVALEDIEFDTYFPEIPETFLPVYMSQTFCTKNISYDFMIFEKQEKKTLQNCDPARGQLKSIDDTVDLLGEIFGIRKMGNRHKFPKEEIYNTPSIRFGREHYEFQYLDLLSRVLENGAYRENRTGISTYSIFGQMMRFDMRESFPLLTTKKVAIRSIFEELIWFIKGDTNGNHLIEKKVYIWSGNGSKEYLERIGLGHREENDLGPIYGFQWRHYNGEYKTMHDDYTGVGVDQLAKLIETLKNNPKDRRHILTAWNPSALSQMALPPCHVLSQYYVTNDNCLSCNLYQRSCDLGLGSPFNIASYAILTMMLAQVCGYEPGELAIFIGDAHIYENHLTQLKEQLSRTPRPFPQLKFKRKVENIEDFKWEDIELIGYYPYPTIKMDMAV
Method: (§1) Enzyme and inhibitor were allowed to incubate for 5 min before adding dihydrofolate to initiate the reaction. Enzyme assays were performed at least four times. IC50 values and their standard deviations were calculated in the presence of varying concentrations of inhibitor near the IC50 concentration.
Compounds were evaluated in spectrophotometric enzyme assays using ChDHFR-TS and hDHFR. Inhibition constants (IC50) were measured (see Table 4). […] The compound abbreviations in Table 4 refer to the following compounds: […]

CgDHFR = CgDHFR (Candida glabrata (strain ATCC 2001 / BCRC 20586 / JCM 3761 / NBRC 0622 / NRRL Y-65 / CBS 138) (Yeast) (Nakaseomyces glabratus), UniProt Q6FPH0); assay: biochemical; conditions: for Selectivity: Table 7, hDHFR vs CgDHFR
Sequence of CgDHFR (Q6FPH0 1-217): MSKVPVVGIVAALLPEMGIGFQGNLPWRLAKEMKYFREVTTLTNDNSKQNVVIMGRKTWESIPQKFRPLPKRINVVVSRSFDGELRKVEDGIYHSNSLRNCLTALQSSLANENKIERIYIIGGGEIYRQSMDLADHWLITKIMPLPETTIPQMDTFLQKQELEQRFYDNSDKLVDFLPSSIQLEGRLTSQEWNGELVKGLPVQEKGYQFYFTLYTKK
Description: CgDHFR: The gene coding CgDHFR was amplified by PCR from C. glabrata genomic DNA obtained from ATCC. The gene was inserted in a pET41 vector that includes a C-terminal histidine tag for nickel affinity chromatography. E. coli cells were transformed and the resulting plasmid was verified by sequencing. The protein was expressed in E. coli BL21(DE3) cells with isopropyl β-D-thiogalactoside induction. Following growth, the cells were lysed with BugBuster (Novagen) and centrifuged; the supernatant was loaded on a Ni-NTA column. The column was washed with 20 mM Tris (pH 8.0)/0.4 M NaCl and the protein was eluted using a gradient of 20 mM Tris (pH 8.0), 0.3 M NaCl, 20% glycerol, 0.1 mM EDTA, 2 mM DTT, 250 mM imidazole. Fractions containing CgDHFR were identified by SDS-PAGE, combined and desalted using a PD-10 column with a buffer containing 20 mM Tris pH 8.0, 20% glycerol, 0.1 mM EDTA and 2 mM DTT. The protein was concentrated to 13 mg/mL.
as §1

TgDHFR = TgDHFR (Toxoplasma gondii, UniProt Q07422, DEL43-70); assay: TgDHFR enzyme inhibition assay; assay type: biochemical
Sequence of TgDHFR (Q07422 71-250, added parts left off, stated change not applied): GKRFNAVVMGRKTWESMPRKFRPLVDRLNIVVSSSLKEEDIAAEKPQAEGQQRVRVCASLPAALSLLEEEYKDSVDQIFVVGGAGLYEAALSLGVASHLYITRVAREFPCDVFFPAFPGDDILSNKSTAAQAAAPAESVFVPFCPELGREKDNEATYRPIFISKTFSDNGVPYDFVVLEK
Method: These residues were removed, leaving a five residue loop region characteristic of several other species of DHFR.
as §1

hDHFR = hDHFR (Homo sapiens (Human), UniProt P00374); assay: hDHFR enzyme inhibition assay; assay type: biochemical
Sequence of hDHFR (P00374 whole entry): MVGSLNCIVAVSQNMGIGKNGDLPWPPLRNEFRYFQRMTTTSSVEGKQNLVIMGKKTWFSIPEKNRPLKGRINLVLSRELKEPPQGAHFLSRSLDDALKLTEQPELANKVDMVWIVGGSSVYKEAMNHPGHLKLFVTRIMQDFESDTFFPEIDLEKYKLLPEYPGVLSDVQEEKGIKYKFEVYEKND
Method: hDHFR: The gene for hDHFR was amplified using PCR from cDNA obtained from ATCC. The gene was inserted in a pET41 vector with a C-terminal histidine tag for affinity chromatography. The resulting construct was verified by sequencing. The hDHFR protein was expressed in E. coli and purified using a nickel affinity column.
as §1
(§2) Enzyme inhibition assays were performed by monitoring the rate of NADPH oxidation by the DHFR enzyme at an absorbance of 340 nm. Assays were performed in the presence of saturating concentrations of NADPH and initiated with dihydrofolate. All assays were completed at 25° C. in a buffer containing 20 mM TES pH 7.0, 50 mM KCl, 10 mM 2-mercaptoethanol, 0.5 mM EDTA and 1 mg/mL BSA. Inhibition was measured at least three times with inhibitor concentrations near the IC50 value and the average IC50 value is reported with a standard deviation.

mammalian cell lines = conditions: result in words
S. aureus DHFR = S. aureus DHFR (Staphylococcus aureus, UniProt P0A017); assay type: biochemical
Method: as §2

MCF-10 cells = assay: Mammalian cell toxicity, MCF-10; assay type: cell-based, human; conditions: cytotoxicity
Method: (§3) Adherent cell lines were maintained in Eagle's Minimal Essential Media (Sigma-Aldrich, St. Louis, Mo., USA) with 2 mM glutamine and Earle's Balanced Salt Solution (HyClone, Logan, Utah, USA) adjusted to contain 1.5 g/L sodium bicarbonate, 0.1 mM non-essential amino acids, 1 mM sodium pyruvate and 10% fetal calf serum. Fetal calf serum used in these assays was lot matched throughout. […] Toxicity assays were conducted between passages 10-20. Target compound toxicity was measured by incubating the test compound with the cells for 4 h, washing the cells and finally treating the cells with Alamar Blue. After 12-24 h, the fluorescence of the reduced dye was measured. Fluorescence intensity as a function of test compound concentration was fit to the Fermi equation, using non-linear least squares regression analysis, to estimate IC50 values.

S. pyogenes DHFR = S. pyogenes DHFR (Streptococcus pyogenes, UniProt Q9A091); assay: S. pyogenes DHFR enzyme inhibition assay; assay type: biochemical
Sequence of S. pyogenes DHFR (Q9A091 1-165): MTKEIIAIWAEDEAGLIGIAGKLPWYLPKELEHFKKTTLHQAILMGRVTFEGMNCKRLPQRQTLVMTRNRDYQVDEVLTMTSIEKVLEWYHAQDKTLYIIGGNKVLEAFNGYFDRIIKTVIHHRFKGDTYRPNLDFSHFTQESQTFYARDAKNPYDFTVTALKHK
Method: as §2

HepG2 cells = assay: Mammalian cell toxicity, HepG2; assay type: cell-based; conditions: cytotoxicity, Table 6
Method: as §3

Streptococcus pyogenes = assay: Antibacterial MIC, broth microdilution with Alamar Blue; assay type: cell-based
Method: (§4) For susceptibility testing, 10 μL of glycerol stock was suspended in a 10 mL shake flask culture of chemically defined Isosensitest broth (Oxoid) supplemented with 2% w/v glucose. A sample of the shake flask culture was diluted to 1×10^6 cells/mL in media and added to 96-well test plates (100 μL per well) containing test compounds dispensed in DMSO (2 μL). After an incubation period (30° C.) determined from the strain specific doubling time, a 0.03% w/v aqueous solution of resazurin (10 μL) was added and the plates were allowed to incubate; each well was then scored for dye reduction.

S. aureus 13709 (MRSA) = assay: as above; assay type: cell-based, Staphylococcus aureus
Method: as §4

[1] = Table 4, read-out: IC50 (ChDHFR)
[2] = C. glabrata, Inact: not active at 2 mM (~600 μg/mL), read-out: Antifungal activity MIC
[3] = Table 7, read-out: IC50 (CgDHFR)
[4] = Table 7, read-out: IC50 (hDHFR)
[5] = average of at least three measurements

## COc1cc(-c2ccccc2)cc(C(C)C#Cc2c(C)nc(N)nc2N)c1 (racemic) [Compound 139, 5-[3-(5-methoxy-biphenyl-3-yl)but-1-yn-1-yl]-6-methylpyrimidine-2,4-diamine]
C. glabrata; C. glabrata, YM media, read-out: MIC (Cg)
  MIC: 11 µg/mL (≈ 30.7 µM)
Measured solubility; aqueous with cosolvent or surfactant or cyclodextrin, kinetic from dmso stock, read-out: Solubility
  Solubility: 20 µg/mL (≈ 55.8 µM)
ChDHFR-TS; [1]
  IC50: 1.8 nM

## COc1cc(CC#Cc2c(C)nc(N)nc2N)cc(OC)c1OC [Compound 5, 6-methyl-5-[3-(3,4,5-trimethoxyphenyl)prop-1-yn-1-yl]pyrimidine-2,4-diamine]
CgDHFR; IC50 against CgDHFR
  IC50: ≤ 25 nM
CgDHFR; Table 3, read-out: CgDHFR IC50
  IC50: 17 nM
TgDHFR
  IC50: < 100 µM
C. glabrata; [2]
  MIC: 20 µg/mL (≈ 60.9 µM)
C. glabrata
  antifungal properties against C. glabrata: exhibited antifungal properties
hDHFR; Table 3, read-out: hDHFR IC50
  IC50: 400 nM
ChDHFR-TS; IC50 against ChDHFR
  IC50: < 100000 nM

## CCc1nc(N)nc(N)c1C#CC(C)c1cc(OC)cc(N2CCOCC2)c1 (stereo not drawn) [Compound 153]
CgDHFR
  Selectivity: 11 ± 1
CgDHFR; [3]
  IC50: 22 ± 2 nM
C. glabrata; C. glabrata, YM media
  MIC (Cg): 12 µg/mL (≈ 31.5 µM)
Measured solubility
  Solubility: 80 µg/mL (≈ 210 µM)
hDHFR; [4]
  IC50: 250 ± 4 nM

## COc1cc(CC#Cc2cnc(N)nc2N)cc(OC)c1OC [Compound 1, 5-[3-(3,4,5-trimethoxyphenyl)prop-1-yn-1-yl]pyrimidine-2,4-diamine]
CgDHFR; CgDHFR IC50, Table 3
  IC50: 33 nM
TgDHFR
  IC50: < 100 µM
C. glabrata; C. glabrata, Inact: not active at 2 mM (~600 μg/mL)
  Antifungal activity MIC: Inact*
ChDHFR-TS; IC50 against ChDHFR
  IC50: < 100000 nM

## COc1cc(-c2c(C(C)C)cccc2C(C)C)ccc1C(C)C#Cc1c(C)nc(N)nc1N (stereo not drawn) [Compound F26I, 5-[3-(3-methoxy-2′6′-diisopropylbiphenyl-4-yl)but-1-yn-1-yl]-6-methylpyrimidine-2,4-diamine]
Mammalian cell lines
  mammalian cell toxicity: display mammalian cell toxcity
hDHFR; Table 4, read-out: IC50 (hDHFR)
  IC50: 4200 ± 0.1 nM
ChDHFR-TS; Table 4
  Selectivity Ratio (IC50 ChDHFR/IC50 hDHFR): 262
ChDHFR-TS; [1]
  IC50: 16 nM

## COc1cc([C@@H](C)C#Cc2c(C)nc(N)nc2N)cc(OC)c1OC (racemic) [Compound X, 6-methyl-5-[3-(3,4,5-trimethoxyphenyl)but-1-yn-1-yl]pyrimidine-2,4-diamine]
CgDHFR; CgDHFR IC50, Table 3
  IC50: 25 nM
CgDHFR; IC50 against CgDHFR
  IC50: ≤ 25 nM
TgDHFR; read-out: IC50 against TgDHFR
  IC50: < 100 µM
C. glabrata; [2]
  MIC: 21 µg/mL (≈ 61.3 µM)
C. glabrata
  antifungal properties against C. glabrata: exhibited antifungal properties
ChDHFR-TS; IC50 (ChDHFR), Table 4
  IC50: 169 ± 6 nM
ChDHFR-TS; IC50 against ChDHFR
  IC50: < 100000 nM
ChDHFR-TS; read-out: IC50 against ChDHFR
  IC50: 38 nM

## COc1cc(C(C)C#Cc2c(C)nc(N)nc2N)cc(N2CCNCC2)c1 (stereo not drawn) [Compound 159]
CgDHFR
  Selectivity: 1.9 ± 0.4
CgDHFR; [3]
  IC50: 143 ± 10 nM
C. glabrata; C. glabrata, YM media
  MIC (Cg): Inact
Measured solubility
  Solubility: 60 µg/mL (≈ 164 µM)
hDHFR; [4]
  IC50: 270 ± 46 nM

## COc1cc(C(C)C#Cc2c(C)nc(N)nc2N)cc(N2CCOCC2)c1 (stereo not drawn) [Compound 152]
CgDHFR
  Selectivity: 20 ± 4
CgDHFR; [3]
  IC50: 20 ± 3 nM
S. aureus DHFR; IC50 (human)/IC50 (pathogen)
  Selectivity (h/Sa): 14
S. aureus DHFR; [5]
  IC50: 29 ± 2 nM
MCF-10 cells; Table 6
  IC50: 462 µM
MCF-10 cells; Table 8
  IC50: 462 µM
S. pyogenes DHFR; IC50 (human)/IC50 (pathogen)
  Selectivity (h/Sp): 15
S. pyogenes DHFR; [5]
  IC50: 26 ± 4 nM
HepG2 cells
  IC50: 494 µM
C. glabrata; C. glabrata, YM media
  MIC (Cg): 12 µg/mL (≈ 32.7 µM)
C. glabrata; IC50 (MCF-10)/MIC (C. glabrata)
  Selectivity Index: 330
C. glabrata; IsoSensitest media supplemented with 2% glucose (thymidine-depleted)
  MIC C. glabrata: 1.4 µg/mL (≈ 3.81 µM)
Streptococcus pyogenes; IC50 (MCF10)/MIC (pathogen)
  Selectivity S. pyogenes: 19,250
Streptococcus pyogenes; Table 6
  MIC S. pyogenes: 0.024 µg/mL (≈ 0.0653 µM)
Measured solubility
  Solubility: 80 µg/mL (≈ 218 µM)
hDHFR; Table 5, average of at least three measurements, read-out: IC50 human
  IC50: 400 ± 40 nM
hDHFR; [4]
  IC50: 400 ± 40 nM
S. aureus 13709 (MRSA); IC50 (MCF10)/MIC (pathogen)
  Selectivity MRSA: 159
S. aureus 13709 (MRSA); Table 6
  MIC MRSA: 2.9 µg/mL (≈ 7.89 µM)

## COc1cc([C@@H](C)C#Cc2c(C)nc(N)nc2N)cc(OC)c1OC [137(R), 2,4-Diamino-5-((R)-3-(3,4,5-trimethoxyphenyl)but-1-ynyl)-6-methylpyrimidine]
TgDHFR
  IC50: < 100 µM
ChDHFR-TS; IC50 against ChDHFR
  IC50: < 100000 nM
